Here are results for 7 molecules from patent US9353141B2, “Galectoside inhibitors of galectins” (GALECTO BIOTECH AB, priority 2012, dated 2016).

Like-named read-outs stand apart in the source and are kept apart here. Some results are limits rather than exact numbers.

The term Kd denotes the equilibrium constant for the complex coming apart.

For assay [1], the target named is T1, galectin-4 (C-terminal domain) (Homo sapiens, UniProt P56470).
T1 sequence (P56470 194-323 limits assumed): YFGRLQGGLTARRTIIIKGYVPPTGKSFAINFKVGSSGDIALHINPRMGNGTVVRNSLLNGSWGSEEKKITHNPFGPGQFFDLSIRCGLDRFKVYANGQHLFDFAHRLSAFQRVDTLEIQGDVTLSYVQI
Put plainly: Fluorescence polarization-based galectin inhibition assay. Format: binding. Conditions: 20° C., read-out: Calculated Kd Galectin 4 (C-terminal domain). The text has this:
(§1) Identification of the substances was made by HRMS (Micromass Q-tof micro) and NMR (Bruker Ultrashield 400 plus, 400 MHz). Chemical shifts are reported downfield from Me4Si using residual […] (7.26 ppm) or CHD2OD (3.35 ppm) as reference. Chemical shifts and coupling constants were obtained from ^1H-NMR and proton resonances were assigned from COSY experiments. Purification was made by RF-HPLC (Beckman, system gold) or flash chromatography, using silica gel (Davisil 35-70 μm, 60 Å). Reactions were followed by TLC (Aluminum sheet, silica gel 60 F254) visualized with UV light, H2SO4 (aq) or an iso-vanillin/H2SO4/EtOH development solution. THF and Et2O were dried over sodium/benzophenone and distilled. CH2Cl2 was dried by molecular sieves (4 Å, 1.6 mm). Other solvents and reagents were commercially available and used without further purifications. Fluorescence polarization experiments were performed on a PolarStar instrument (BMG, Offenburg; Germany). Evaluation of 20-34 as inhibitors of galectins was performed by use of fluorescence polarization as described in the literature (Sorme et al., 2003a, 2004). Galectin concentrations and fluorescent probe choice and concentrations were as described in Cumpstey et al. 2005a, except for galectin-3 for which the probe tdga-probe described in Salomonsson et al. 2010 was used at 20 nM together with galectin-3 at 200 nM concentrations. Each inhibitor was tested in duplicate at several concentrations between 4 and 0.25 μM. All fluorescence polarization experiments were conducted at 20° C., except galectin-7 for which experiments were conducted at 0° C.

In assay [2] the target is T2, galectin-8 (N-terminal domain) (Homo sapiens, UniProt O00214).
T2 sequence (O00214 19-152 limits assumed): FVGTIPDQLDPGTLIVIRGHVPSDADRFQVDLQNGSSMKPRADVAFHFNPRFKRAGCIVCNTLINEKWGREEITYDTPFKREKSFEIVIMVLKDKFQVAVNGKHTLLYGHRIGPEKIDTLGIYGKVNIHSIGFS
The assay is described as above. The class given is binding. Conditions: 20° C., read-out: Calculated Kd Galectin 8 (N-terminal domain).
Source text: as §1

The target in the next assay is galectin-7 (Homo sapiens, UniProt P47929). The assay is described as above. The class given is binding. Conditions: 0° C., read-out: Calculated Kd Galectin 7.
Sequence of galectin-7 (P47929 whole entry, species assumed): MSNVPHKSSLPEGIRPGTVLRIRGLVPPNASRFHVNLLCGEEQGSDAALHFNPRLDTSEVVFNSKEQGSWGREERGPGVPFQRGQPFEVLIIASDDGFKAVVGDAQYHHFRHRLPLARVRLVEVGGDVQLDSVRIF
Source text: as §1

The target in assay [3] is galectin-9 (C-terminal domain) (Homo sapiens, UniProt O00182). Described as above. The class given is binding. Conditions: 20° C., read-out: Calculated Kd Galectin 9 (C-terminal domain).
Sequence of galectin-9 (C-terminal domain) (O00182 227-355 limits assumed, species assumed): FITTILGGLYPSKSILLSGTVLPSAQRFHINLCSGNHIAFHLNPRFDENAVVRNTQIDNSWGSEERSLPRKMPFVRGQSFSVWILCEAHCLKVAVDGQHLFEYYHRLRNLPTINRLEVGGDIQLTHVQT
Source text: as §1

In assay [4] the target is galectin-9 (N-terminal domain) (Homo sapiens, UniProt O00182). The assay is described as above. Conditions: 20° C., read-out: Calculated Kd Galectin 9 (N-terminal domain). The class given is binding.
Sequence of galectin-9 (N-terminal domain) (O00182 17-148 limits assumed, species assumed): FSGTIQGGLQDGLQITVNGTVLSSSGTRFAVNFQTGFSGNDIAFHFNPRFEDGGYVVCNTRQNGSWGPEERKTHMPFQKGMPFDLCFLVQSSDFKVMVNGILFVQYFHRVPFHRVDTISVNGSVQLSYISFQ
Source text: as §1

In assay [5] the target is T3, galectin-4 (N-terminal domain) (Homo sapiens, UniProt P56470).
T3 sequence (P56470 19-150 limits assumed): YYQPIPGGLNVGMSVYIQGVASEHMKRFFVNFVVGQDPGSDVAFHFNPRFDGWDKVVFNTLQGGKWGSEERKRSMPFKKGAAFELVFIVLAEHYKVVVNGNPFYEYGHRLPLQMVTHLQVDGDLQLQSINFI
Described as above. Format: binding.
Source text: as §1

Another assay deals with galectin-1 (Homo sapiens, UniProt P09382). The assay is described as above. Format: binding. Conditions: 20° C., read-out: Calculated Kd Galectin 1.
Sequence of galectin-1 (P09382 whole entry, species assumed): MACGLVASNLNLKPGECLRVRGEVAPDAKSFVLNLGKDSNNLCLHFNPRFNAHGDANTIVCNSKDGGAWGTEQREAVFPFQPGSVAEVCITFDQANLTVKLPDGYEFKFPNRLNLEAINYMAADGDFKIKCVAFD
Source text: as §1

The target in a further assay is galectin-3 (Homo sapiens, UniProt P17931). Described as above. Conditions: 20° C., tdga-probe 20 nM, galectin-3 200 nM, read-out: Calculated Kd Galectin 3. The class given is binding.
Sequence of galectin-3 (P17931 whole entry, species assumed): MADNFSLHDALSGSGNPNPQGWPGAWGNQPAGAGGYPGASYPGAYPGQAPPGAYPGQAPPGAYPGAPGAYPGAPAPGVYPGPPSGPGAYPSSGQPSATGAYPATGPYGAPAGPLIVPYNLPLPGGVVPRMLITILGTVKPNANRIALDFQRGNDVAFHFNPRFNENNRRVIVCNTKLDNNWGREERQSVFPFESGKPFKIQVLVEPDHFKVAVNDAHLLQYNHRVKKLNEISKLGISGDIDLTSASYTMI
Source text: as §1

For the next assay, the system named is galectins. Conditions: all galectins; cited from earlier work.

On to `O=c1oc2ccccc2cc1CO[C@H]1[C@@H](O)[C@@H](CO)O[C@@H](S[C@@H]2O[C@H](CO)[C@H](O)[C@H](OCc3cc4ccccc4oc3=O)[C@H]2O)[C@@H]1O` [Compound 20, bis-{3-O-[(2H-1-benzopyran-2-on-3-yl)-methyl]-β-D-galactopyranosyl}sulfane], for which the equilibrium dissociation constant (Kd) in assay [1] is 156 µM; in [2], 11 µM; at galectin-7, 3.9 µM; in assay [3], 2.4 µM; in assay [4] it was 1.7 µM; in [5] it was 49 µM. Further, the figures for the Kd on galectin-1 and at galectin-3 were 15.4 µM and 0.25 µM, respectively.

Take `O=c1oc2cc(Cl)ccc2cc1CO[C@H]1[C@@H](O)[C@@H](CO)O[C@@H](S[C@@H]2O[C@H](CO)[C@H](O)[C@H](OCc3cc4ccc(Cl)cc4oc3=O)[C@H]2O)[C@@H]1O` [Compound 21, bis-{3-O-[(7-chloro-2H-1-benzopyran-2-on-3-yl)-methyl]-β-D-galactopyranosyl}sulfane]: the Kd is 74 µM in [2]; 61 µM on galectin-7; 140 µM in assay [4]; 21 µM at galectin-1; 4.7 µM on galectin-3.

As to `COc1ccc2cc(CO[C@H]3[C@@H](O)[C@@H](CO)O[C@@H](S[C@@H]4O[C@H](CO)[C@H](O)[C@H](OCc5cc6ccc(OC)cc6oc5=O)[C@H]4O)[C@@H]3O)c(=O)oc2c1` [Compound 22, bis-{3-O-[(7-methoxy-2H-1-benzopyran-2-on-3-yl)-methyl]-β-D-galactopyranosyl}sulfane], the Kd in [1] is over 500 µM; in assay [2], 85 µM; on galectin-7, 37 µM; in assay [3], about 4 µM; in assay [4], 13 µM; in [5] (fluorescence polarization, 20° C., read-out: Calculated Kd Galectin 4 (N-terminal domain)) it was 130 µM. The Kd was 9.9 µM at galectin-1 and 0.89 µM at galectin-3.

Turning to `O=C(NC1C(O)[C@H](S[C@@H]2OC(CO)[C@H](O)C(NC(=O)c3ccc4ccccc4c3)C2O)OC(CO)[C@@H]1O)c1ccc2ccccc2c1` (stereo partly shown) [Compound 36, reference compound], the Kd is over 100 µM in assay [2]; 1.7 µM on galectin-7; 0.73 µM in assay [4]; 9.6 µM on galectin-1; 0.16 µM at galectin-3.

Regarding `O=C[C@H](O)[C@@H](O)[C@@H](O)[C@H](O)CO` [D-galactose], in the assay with galectins, the “affinity compared with lactose” value was 50-100 times lower.

Turning to `OC[C@H]1O[C@@H](O[C@H]2[C@H](O)[C@@H](O)C(O)O[C@@H]2CO)[C@H](O)[C@@H](O)[C@H]1O` (stereo partly shown) [lactose], the Kd at galectins was 500 to 1000 µM.

On to `CO[C@@H]1OC(CO)[C@H](O)C(O)C1O` (stereo partly drawn) [methyl β-D-galactoside, reference compound], for which the Kd at galectin-7 was 4800 µM; in [3], 5000 µM; in assay [4], 3400 µM.
